The structures appear in SMILES notation. Where a name gives a salt, the structure may show the parent alone.

T1 sequence (A0A287BIN3 25-1109): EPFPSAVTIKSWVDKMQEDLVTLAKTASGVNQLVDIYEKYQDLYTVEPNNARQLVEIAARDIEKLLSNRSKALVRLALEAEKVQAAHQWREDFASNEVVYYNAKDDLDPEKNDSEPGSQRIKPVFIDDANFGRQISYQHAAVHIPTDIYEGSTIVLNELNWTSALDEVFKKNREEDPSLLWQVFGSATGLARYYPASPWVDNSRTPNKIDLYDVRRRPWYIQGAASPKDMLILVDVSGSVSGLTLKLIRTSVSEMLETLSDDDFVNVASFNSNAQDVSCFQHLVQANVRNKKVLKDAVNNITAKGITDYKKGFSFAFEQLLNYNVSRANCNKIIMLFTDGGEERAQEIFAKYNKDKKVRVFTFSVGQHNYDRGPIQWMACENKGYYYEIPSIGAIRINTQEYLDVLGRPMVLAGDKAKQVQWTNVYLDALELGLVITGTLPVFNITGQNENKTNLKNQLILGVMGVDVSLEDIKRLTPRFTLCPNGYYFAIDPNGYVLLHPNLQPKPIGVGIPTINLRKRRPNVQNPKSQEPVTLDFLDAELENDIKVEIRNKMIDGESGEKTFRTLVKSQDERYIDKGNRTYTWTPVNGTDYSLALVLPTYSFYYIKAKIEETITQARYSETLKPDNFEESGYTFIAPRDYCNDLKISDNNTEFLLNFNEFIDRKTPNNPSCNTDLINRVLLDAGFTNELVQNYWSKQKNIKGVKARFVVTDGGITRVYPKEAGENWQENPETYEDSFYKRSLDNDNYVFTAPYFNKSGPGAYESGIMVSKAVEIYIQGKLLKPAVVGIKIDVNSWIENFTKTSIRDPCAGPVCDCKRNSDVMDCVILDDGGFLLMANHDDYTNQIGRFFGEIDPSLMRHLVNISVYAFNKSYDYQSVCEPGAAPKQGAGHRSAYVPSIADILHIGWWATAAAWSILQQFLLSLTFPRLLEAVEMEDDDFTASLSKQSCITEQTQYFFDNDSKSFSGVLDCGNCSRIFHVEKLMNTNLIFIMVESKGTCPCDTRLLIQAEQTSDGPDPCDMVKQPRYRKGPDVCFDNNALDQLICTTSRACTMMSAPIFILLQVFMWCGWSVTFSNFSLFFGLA

This test addresses T1, α2δ subunit derived from porcine brain tissue (Sus scrofa, UniProt A0A287BIN3).
T1 construct: the α2δ subunit derived from porcine brain tissue; from tissue; host or cells: porcine brain tissue
The test can be described thus: radioligand binding assay using [3H]gabapentin. The conditions noted are these: [3H]gabapentin binding. An excerpt:
The biological activity of the alpha-2-delta ligands of the invention may be measured in a radioligand binding assay using [^3H]gabapentin and the α2δ subunit derived from porcine brain tissue (Gee N. S., Brown J. P., Dissanayake V. U. K., Offord J., Thurlow R., Woodruff G. N., J. Biol. Chem., 1996;271:5879-[…]). Results may be expressed in terms of μM or nM α2δ binding affinity.
Usually IC50 stands for the concentration that inhibits the measured activity by half. `O=C(O)[C@@H]1C[C@H](Oc2ccc3ccncc3c2)CN1` [Example 7] showed an IC50 of 0.21 µM.
The molecule `O=C(O)[C@@H]1C[C@H](Cc2cccc(F)c2F)CN1` [Example 11, (2S,4S)-4-(2.3-Difluoro-benzyl)-pyrrolidine-2-carboxylic acid mono-hydrochloride salt] displayed an IC50 of 0.015 µM.
Turning to `O=C(O)[C@@H]1C[C@H](Oc2cccc(Cl)c2)CN1` [Example 8, (2S,4S)-4-(3-Chloro-phenoxy)-pyrrolidine-2-carboxylic acid], the IC50 turned out to be 0.005 µM.
Molecule `O=C(O)[C@@H]1C[C@H](Cc2cc(F)ccc2F)CN1` [Example 12, (2S,4S)-4-(2,5-Difluoro-benzyl)-pyrrolidine-2-carboxylic acid mono hydrochloride salt] displayed an IC50 of 0.007 µM.
Under `O=C(O)[C@@H]1C[C@H](Cc2cccc(F)c2)CN1` [Example 10, (2S,4S)-4-(3-Fluoro-benzyl)-pyrrolidine-2-carboxylic acid mono hydrochloride salt] stands 0.011 µM; under `O=C(O)[C@@H]1C[C@H](Sc2ccccc2)CN1` [Example 4, (2S,4S)-4-phenylthio-pyrrolidine-2-carboxylic acid], 0.072 µM.
Under `O=C(O)[C@@H]1C[C@H](OCc2ccc(Cl)cc2)CN1` [Example 2, (2S,4S)-4-[(4-chlorobenzyl)oxyl]-pyrrolidine-2-carboxylic acid] stands 0.119 µM; under `COc1cccc(C[C@@H]2CN[C@H](C(=O)O)C2)c1` [Example 14, (2S,4S)-4-(3-Methoxy-benzyl)-pyrrolidine-2-carboxylic acid mono hydrochloride salt], 0.009 µM.

The values above are taken from US7659305B2, “Therapeutic proline derivatives” (Pfizer Inc., priority 2002, dated 2010).
